The test system of one series is PD-LCL cells. The series is described as follows: Western blot for Zta in lymphoblastoid cell line. Type of series: cell-based, human. The settings on record: detectable in DMSO treated cells. As for the experimental part:
(§1) Protein concentration was determined by the Bradford assay.
(§2) CXD101 is currently undergoing clinical trials (Eyre, T. A., et al. (2019). Cancer 125, 99-108.), and chidamide is approved in China by the National Medical Products Administration (NMPA) for treatment of peripheral T-cell lymphoma (Xu, Y., et al. (2017). Drugs of Today; 53.) and breast cancer (Jiang, Z., et al. (2018). Annals of Oncology; 29.). Therefore, chidamide and CXD101 were used to treat naturally-infected Burkitt lymphoma cell lines Namalwa, Raji, and Akata, or the ex vivo infected lymphoblastoid cell line PD-LCL in parallel with YCCEL1 cells. Romidepsin was used to treat the same panel of cells. […] Zta expression level in ex vivo infected B cell line PD-LCL is detectable in DMSO treated cells and it is not affected after HDACi treatment. All HDACis used induced detectable amounts of H3-ac, with cell line-dependent variation (FIG. 1E). To assess the extent of EBV reactivation, mRNA expression of several immediate-early, early, and late lytic genes was analysed (FIG. 9E). […] Up to 5-10% of YCCEL1 and SNU719 cells were positive for late Viral Capsid Antigen (VCA) after chidamide or CXD101 treatment, but not SAHA-treatment. […] Both benzamide- and hydroxymate-based HDACi can induce EBV reactivation in gastric epithelial cancer cells, but benzamide-based HDACis are generally less toxic than hydroxymate-based HDACi.
In general terms: A western blot detects proteins with antibodies after separation by electrophoresis.

The subject of series [1] is Burkitt lymphoma cell lines Namalwa, Raji, and Akata. Put plainly: Western blot for Zta and H3-ac in Burkitt lymphoma cell lines. Type of series: cell-based, human. Particulars: naturally infected Burkitt lymphoma cell lines. As for the experimental part: as §1, §2
Series [2] relates to YCCEL1 cells. The series is described as follows: High content imaging of Zta-positive cells (immunofluorescence).
Procedure: Cells were seeded on 13 mm coverslips or 96 well-plates 24 h prior to the treatment. After washing with PBS, cells were fixed by the addition of 4% formaldehyde (Life Technologies) in PBS for 10 min, washed three times with PBS, and incubated with 0.1% Triton X-100 for 20 min. After three more washes, coverslips were incubated with Signal Enhancer for 30 min. Following one wash, cells were incubated with the primary antibody diluted in antibody diluent (Dako) with a background reducing agent for 90 min. After washing three times, coverslips were incubated with a secondary antibody solution containing DAPI diluted in antibody diluent for 1 h in the dark. Coverslips were washed three times with PBS and once in purified water before coverslips were mounted on Polysine Microscope Adhesion slides with ProLong Gold Antifade Mountant (Life Technologies). Cells affixed on slides were visualized using a Zeiss LSM 710 laser scanning confocal microscope, while cells on 96 well plates were visualized using the Operetta High Content Screening System (PerkinElmer).
Experiments were run in duplicate. Liquid handling for cell plating, drug treatment, and cell fixation was performed using a JANUS PerkinElmer Automated Workstation (PerkinElmer). […] All other staining steps were performed with a FlexDrop PLUS (PerkinElmer). Cells were visualized using a GE IN Cell Analyzer 6000 (GE Healthcare Life Sciences) with a 10× objective. Percentages of Zta-positive cells within the wells were assessed with a protocol established within the Columbus software (PerkinElmer).
The readout was percentage of cells positive for the immediate-early viral transcription factor Zta, as assessed by immunofluorescence staining and confocal microscopy.
Series [3] deals with AGS-EBV cells. The series is described as follows: RT-qPCR of EBV lytic genes. Type of series: cell-based, human. The text has this:
RNA was extracted from cells using the RNeasy Mini Kit (Qiagen), following the manufacturer's instructions. Possible contamination with genomic DNA was removed by treatment with DNase I according to the manufacturer's instructions. One μg was used to generate cDNA using the SuperScript Reverse Transcriptase III System following the manufacturer's instructions. QuantiTect SYBR Green PCR Kit was used to perform RT-qPCR using the StepOnePlus real-time PCR system (Applied Biosystems). Reactions were performed in duplicate and in a final volume of 20 μL. Relative mRNA abundances were normalized to endogenous glyceraldehyde 3-phosphate dehydrogenase (GAPDH) mRNA levels. Shown qPCR results were analyzed by the ΔΔCt-method, with the threshold cycles being determined by the Applied Biosystems software.
In general terms: In qPCR the cycle at which signal appears reflects the starting amount.

Series [4] relates to AGS-EBV cells. Put plainly: Zta expression (immunofluorescence and Western blot). Type of series: cell-based, human. Particulars: for Zta expression: 5 μM SAHA, 5 μM chidamide, 2.5 μM CXD101. Here is the method:
as §1

Series [5] deals with YCCEL1 cells. Type of series: cell-based, human.
In series [6] the test system is AGS-EBV cells. The series is described as follows: Killing of AGS-EBV cells by Zta-specific TCR-T cells (IncuCyte, Cytotox Red). Particulars: for cell death of AGS-EBV cells: HDACi pre-treatment, then primary T cells expressing TCR4, after 8 h of co-culture, compared to DMSO. Type of series: cell-based, human. Here is the method:
EBV+GC cells were treated with either 2.5 μM of CXD101, 5 μM of chidamide, or 5 μM of SAHA, and DMSO was used as a negative control. Approximately 10×10^5 AGS-EBV cells were plated in […] the day before treatment to allow 50% confluence. The next day, the media was removed, and the cells were treated for 48 hours with the HDACi or DMSO. After 48 hours, the cells were dissociated with trypsin-EDTA and counted. The dissociated cells were plated in the wells of a flat-bottomed 96-well plate and left to adhere for 4-6 hours before the addition of Zta-specific T cells. The IncuCyte S3 Live-Cell analysis system was used to analyze the interactions between the T cells and the HDACi-treated gastric cells over a period of 24 hours. The cells were cultured at an E:T ratio of 10:1. The IncuCyte® Cytotox Red Reagent for counting dead cells was added to each well at the start of incubation. The treated AGS-EBV cells were co-cultured with the HLA-A*02:01-restricted TCR4 primary T cell clones and the HLA-mismatched control clone, TCR9. After 24 hours of incubation, the supernatant was removed from the wells for quantification of cytokines. The ability of the clones to kill the target cells was assessed using the automated IncuCyte analysis software. The Cytotox Red apoptosis marker that was added to the wells at the start of co-culture was taken up by dead cells, and the overlap area of this red fluorescence with larger, very bright GFP cells was measured in μm^2 per replicate well at each set time point.

Series [7] deals with PBMCs from an EBV+ healthy donor. Put plainly: IFNγ ELISpot of ex vivo EBV-specific CD8+ T cell responses. Type of series: cell-based, human. Particulars: PBMCs with pool of EBV epitopes, 12 hours; range of doses. An excerpt: To be able to effectively “kick” EBV+GC cells into Zta+ abortive EBV reactivation lytic cycle presented us with an opportunity to “kill” the reactivated EBV+ cancer cells by harnessing the host's immune system, Zta specific T cells in particular as Zta is highly immunogenic (Pudney, V. A., et al. (2005). J Exp Med 201, 349-360) and many EBV seropositive individuals have Zta memory T cells. This study was set out to test whether HDACi have any direct impacts on CD8+ T cell responses to EBV viral antigens. Peripheral blood mononuclear cells (PBMCs) from an EBV+ healthy donor were stimulated with a pool of pre-determined EBV epitopes in the presence or absence of HDACi for 12 hours, and ex vivo EBV-specific CD8+ T cell responses were determined by an IFNγ ELISpot assay. […] In parallel, the optimal dose of each HDACi for AGS-EBV to minimize cell toxicity versus their ability to induce Zta expression was determined (FIG. 15A). To provide a proof of principle, whether reactivation of Zta by HDACi could sensitize tumor cells for recognition and killing by Zta-specific CD8+ T cells was subsequently tested. […] The TCR gene was retrovirally transduced into a TCR-negative T cell line (SKW3) or primary human CD8+ T cells for functional readouts, including cytokine production and killing of the tumor cells.

Series [8] concerns YCCEL1 cells. The series is described as follows: Western blot for Zta and total acetylation of histone 3. Type of series: cell-based, human. The settings on record: FIGS. 1C and 9D (YCCEL1; SNU719). As for the experimental part:
as §1

In the next series the test system is NCC-24 cells. Put plainly: Western blot for p53 and Zta. Type of series: cell-based, human. The settings on record: NCC-24, mutant TP53 (G266R and R273H).

As to `Cc1nn(C)cc1CN1CCC(c2ccc(C(=O)Nc3ccccc3N)cc2)CC1` [CXD101], in the series with PD-LCL cells, the Zta expression level result is on record as “not affected”. Also, the Zta expression entry was “none of these HDACi induced Zta expression” in series [1] and “strong activation of Zta expression” with AGS-EBV cells [4]. Also, the “Zta+ cells” value in the series with YCCEL1 cells [2] (5 μM) was 36.5%; with YCCEL1 cells [2] (10 μM), 40.7%. For the same compound, the “Zta expression / EBV reactivation” value with YCCEL1 cells [2] (increasing concentrations (FIG. 1B)) is listed as “strong dose-dependent effect on Zta expression”. Also, in the series on AGS-EBV cells [3], the “activation of lytic genes” value was “comparable activation of lytic genes”. Besides, the “toxicity (cell number relative to DMSO)” value in the series with YCCEL1 cells [5] was “low toxicity”. In addition, in the series with AGS-EBV cells [6] (AGS-EBV, compared to SAHA (P<0.01)), the “toxicity induced by T cells” value is “more pronounced”. Besides, the “cell death of AGS-EBV cells” value with AGS-EBV cells [6] is recorded as “dramatic increase in cell death”. For the same compound, the “effect on T cell responses to EBV antigens” value in series [7] is given as “little, if any, inhibitory effect”.

As to `O=C(CCCCCCC(=O)Nc1ccccc1)NO` [SAHA], the “activation of lytic genes” value with AGS-EBV cells [3] is on record as “comparable activation of lytic genes”. Also, the Zta expression result in the series on AGS-EBV cells [4] is “strong activation of Zta expression”. In the series on YCCEL1 cells [8], the “induction of Zta expression (Western blot)” value is “failure” and the “total histone 3 acetylation (H3-ac)” value is given as “induced detectable H3-ac”. Besides, the “cell death of AGS-EBV cells” value with AGS-EBV cells [6] is reported as “dramatic increase in cell death”.

As to `COc1ccc(C2=N[C@@H](c3ccc(Cl)cc3)[C@@H](c3ccc(Cl)cc3)N2C(=O)N2CCNC(=O)C2)c(OC(C)C)c1` [nutlin-3a], the Zta expression entry in the series with NCC-24 cells is “failed to express Zta”. Moreover, in the series on AGS-EBV cells [4] (agent alone), the “Zta expression (Western blot)” value is “able to induce high levels of Zta expression”.

Values taken from patent US20240325539A1, “METHODS AND COMPOSITIONS FOR TREATING EPSTEIN BARR VIRUS-ASSOCIATED CANCER” (The Chancellor, Masters and Scholars of the University of …, priority 2020, published 2024).
